From patent publication US20030064380A1, “Anergy-regulated molecules” (The Center For Blood Research, Inc., priority 2001, published 2003)

Key:
[1] = test system: Th1 cells; assay: cytokine mRNA induction in primary Th1 cells after tolerising pretreatment; type: cell-based, mice
Procedure: The murine Th1 cell clone D5 (Ar-5) was cultured as previously described (Agarwal and Rao, (1998) Immunity 9: 765-775). Primary CD4+T cells were isolated from lymph nodes and spleen of NFAT1−/− or wild type DO11.10 transgenic mice using magnetic beads (Dynal), and differentiated in vitro by stimulating for one week with irradiated APC and 1 μg/ml OVA as previously described (Agarwal and Rao, (1998) Immunity 9: 765-775). Jurkat and Phoenix Ecotropic cells were cultured in Dulbecco's modified Eagle's medium supplemented with 10% fetal calf serum, 10 mM HEPES and 2 mM glutamine.
(§1) Total cellular RNA was purified from resting cells or cells stimulated with APC and antigen or anti-CD3 plus anti-CD28 for 4 h, using Ultraspec reagent (Biotecx) and analyzed using the RiboQuant multiprobe RNase protection kit and specific multi-set probes (Pharmingen) according to the manufacturer's instructions. Jurkat cells were transfected by electroporation in serum-free medium with pulses of 250 V and 960 μF with […] of pEGFPN1 (Clontech) or pNLS-NFAT1 (ST2+5+8) (Okamura et al., (2000) Mol. Cell. 6: 539-550). RNA from transiently transfected Jurkat cells was obtained after selecting transfected cells for expression of a cotransfected murine CD4 plasmid using magnetic beads (Dynal).
(§2) Thus the net effect of a tolerising stimulus on T cells is to skew the cytokine response towards production of the immunosuppressive cytokine […], while down-regulating production of multiple other cytokines and chemokines associated with a productive immune response.
The anergised cells were fully responsive to PMA and ionomycin, stimuli which bypass the membrane-proximal steps of TCR signal transduction.

[2] = test system: Th2 cells; assay: cytokine mRNA levels in Th2 cells after ionomycin pretreatment; type: cell-based
Procedure: as §1, §2

[3] = test system: NFAT, AP-1 and NFκB DNA-binding activity; assay: electrophoretic mobility shift assay of nuclear extracts of stimulated Th1 cells; type: cell-based
Procedure: Nuclear extracts were prepared from Th1 cells, unstimulated or stimulated for 60 minutes with 500 nM ionomycin or 20 nM PMA plus 500 nM ionomycin. Binding reactions were performed as previously described (Macian et al., (2000) EMBO J. 19: […]) using NFAT, AP-1 and NF-KB specific probes (Goldfeld et al., (1993) J. Exp. Med. 178: 1365-1379).

[4] = test system: caspase-3; assay: RNase protection assay of caspase-3 mRNA; type: cell-based, murine; settings: D5 T cells
Procedure: as §1
(§3) Of particular interest was the fact that several of the ionomycin-induced genes encoded proteins involved (or potentially involved) in protein degradation. Candidate genes in this category included caspase-3, SOCS-2 and Traf5 (FIG. 6B). Caspase-3 is an enzyme for which commercial reagents are readily available. Tests were conducted to determine whether caspase-3 was activated and functional in ionomycin-pretreated T cells. […] Further work will be necessary to establish whether proteolysis occurs in specific intracellular compartments relevant to TCR signal transduction or whether other signaling proteins are substrates for proteolysis in anergic cells.

[5] = test system: D5 or primary T cells; assay: apoptosis assays of ionomycin-stimulated T cells; type: cell-based, murine; settings: several independent assays
Procedure: Apoptosis was detected by the Tunel method using the In situ Cell Death Detection kit (Boheringer) following manufacture's instructions. Stained cells were analyzed on a FACSCAN (Beckton-Dickinson).
as §3

[6] = test system: D5 and Th1 cells; assay: gene transcription profiles of ionomycin-induced genes (FIGS. 6B, 7B), Affymetrix arrays and real-time RT-PCR; type: cell-based, murine
Procedure: D5 or primary T cells from NFAT1−/− or wild type DO11.10 transgenic mice were stimulated for 2, 6 or 16 hours with 500 nM ionomycin, 20 nM PMA plus 500 nM ionomycin, or 1 μM CsA plus 500 nM ionomycin. Total RNA was isolated with an RNeasy kit (QIAGEN). Ten μg of total RNA was quantitatively amplified and biotin-labeled as described (Byrne et al., (2000) “Preparation of mRNA for Expression Monitoring” Current Protocols in Molecular Biology (John Wiley & Sons, Inc.) pp. 22.22.21-22.22.13). Hybridization to GeneChips® (Affymetrix) displaying probes for 11,000 mouse genes/ESTs was performed at 40° C. overnight in a mix that included 10 μg fragmented RNA, 6× SSPE, 0.005% Triton X-100 and 100 μg/ml herring sperm DNA in a total volume of 200 μl. Chips were washed, stained with SA-PE and read using an Affymetrix GeneChip® scanner and accompanying gene expression software. […]
Total RNA was prepared from resting or stimulated T cells using Ultraspec reagent (Biotecx). cDNA was synthesized using oligo-dT primers and Superscript polymerase (Invitrogen) following the manufacturer's recommendations. Quantitative real-time PCR was performed in an I-Cycler (BioRad) using a SYBR Green PCR kit from Applied Biosystems and specific primers to amplify 100-200 bp fragments from the different genes analyzed. A threshold was set in the linear part of the amplification curve (fluorescence=f[cycle number]) and the number of cycles needed to reach it calculated for every gene. […]
Among them were many ESTs with no assigned function; a single cytokine gene, M-CSF; genes in other functional categories as shown in FIG. 6B; but no other genes normally associated with a productive immune response. […] To validate the array data, expression of 15 of the 18 genes were evaluated by quantitative real-time RT-PCR, and in every case ionomycin-mediated induction was confirmed (see numbers within panels of FIG. 6B). […]

[7] = primary Th1 cells, pretreatment, subsequent stimulation with antigen

C[C@H](CCC(=O)O)C[C@H](C)C[C@H](C)C(=O)/C=C(\O)[C@H](C)C[C@H](C)C/C=C/[C@@H](C)[C@@H](O)[C@@H](C)[C@@H](O)C[C@@H]1CC[C@@](C)([C@H]2CC[C@@](C)([C@@H](C)O)O2)O1 [Ionomycin, ionomycin]
induction of IL-2 and IFN-γ mRNA ([1]; NFAT1−/− Th1 cells, after pretreatment): perceptible induction
effect on Fas-L mRNA [1, 7]: less effect
induction of IL-2, IFN-γ, IL-10, TNF-α and MIP-1α mRNAs [1, 7]: pronounced decrease
induction of L-2 and IFN-γ mRNA ([1]; wildtype DO11.10 Th1 T cells, pretreatment): markedly decreased
IL-10 transcript levels [2]: not affected
reduction in mRNA levels of IL-4, IL-5 and IL-13 [2]: approximately 70%
AP-1 or NFκB DNA-binding activity [3]: no increase
NFAT DNA-binding activity [3]: increased
caspase-3 mRNA level [4]: upregulated
apoptosis [5]: no detectable apoptosis
induction of Grg4, Ikaros, PTP-1B and GBP-3 ([6]; compared to PMA/ionomycin): more strongly induced
induction of Rab-10 ([6]; early times): markedly induced
induction of jumonji, CD98 and FasL ([6]; ionomycin versus PMA/ionomycin): similarly induced
